Laboratory results published in EP3201178B1 (University of Hertfordshire Higher Education Corporation, priority 2014, dated 2016).

Experiments:
dopamine D2 receptors = dopamine D2 receptors (Homo sapiens, UniProt P14416); assay: binding affinity for the D2 DA receptor; conditions: for affinity for dopamine D2 receptors: result in words
SH-SY5Y cells = conditions: Tovilovic et al., 2012; cited from earlier work
[1] = tested on: rat primary ventral mesencephalic neurones; assay: MTT viability assay, lactacystin cytotoxicity on primary ventral mesencephalic neurones; type: cell-based; conditions: lactacystin 5µM, rat ventral mesencephalic cells in culture
Source text: (§1) • Figure 1 illustrates Scheme 1, the synthetic route and chemical structures N-{4-[2-(4-aryl-piperazin-1-yl)-ethyl]-phenyl}-arylsulphonamides, N-{3-[2-(4-aryl-piperazin-1-yl)-ethyl]-phenyl}-arylsulphonamides and N-{2-[2-(4-aryl-piperazin-1-yl)-ethyl]-phenyl}-arylsulphonamides; • Figure 2 illustrates Scheme 2 the synthetic route and chemical structures of the N-{4-[2-(4-aryl-piperazin-1-yl)-methyl]-phenyl}-arylsulphonamides, N-{3-[2-(4-aryl-piperazin-1-yl)-methyl]-phenyl}-arylsulphonamides and N-{2-[2-(4-aryl-piperazin-1-yl)-methyl]-phenyl}-arylsulphonamides; • Figure 3 illustrates Table 1 illustrating the chemical structure and binding affinity of the some new arylpiperazine-sulphonamides for the D2 DA and 5-HT1A receptors; • Figure 4 illustrates the effect of compounds 1 and 2 on motor clinical scores; • Figure 5 illustrates the viability of rat ventral mesencephalic cells in culture following administration of proteasomal inhibitor lactacystin (5µM) using MTT assay. Compound 4h (4207) and 4f (4295) are protective against the effect of lactacystin in this model; and • Figure 6 illustrates the viability of ventral mesencephalic neurones using calcein AM assay.

5-HT1a receptors = target: T1, 5-HT1a receptors (Homo sapiens, UniProt P08908); assay: binding affinity for the 5-HT1A receptor
T1 sequence (P08908 1-422): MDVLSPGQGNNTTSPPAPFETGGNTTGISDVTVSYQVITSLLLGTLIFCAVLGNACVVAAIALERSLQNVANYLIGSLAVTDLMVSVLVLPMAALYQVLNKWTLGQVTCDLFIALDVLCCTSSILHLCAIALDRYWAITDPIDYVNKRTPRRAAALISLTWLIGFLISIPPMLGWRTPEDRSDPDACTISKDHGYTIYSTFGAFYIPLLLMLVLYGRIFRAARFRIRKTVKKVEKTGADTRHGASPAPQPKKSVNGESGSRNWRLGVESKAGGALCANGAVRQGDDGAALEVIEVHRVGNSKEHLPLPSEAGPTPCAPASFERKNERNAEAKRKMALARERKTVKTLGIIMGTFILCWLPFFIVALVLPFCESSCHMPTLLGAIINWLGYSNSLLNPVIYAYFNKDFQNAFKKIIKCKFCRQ

[2] = tested on: ventral mesencephalic neurones; assay: calcein AM fluorescence viability assay against lactacystin; type: cell-based, rat; conditions: 5 µM lactacystin; for protection against lactacystin in calcein AM fluorescence assay: compound concentrations 0.1 to 1 µM; for neuroprotection against lactacystin in calcein AM fluorescence assay at higher concentrations: compound concentrations 10 to 100 µM; for viability of ventral mesencephalic neurones, calcein AM assay (Figure 6 legend): low to medium concentrations of compound
Source text: as §1

Chain of dopamine D2 receptors (P14416 whole entry): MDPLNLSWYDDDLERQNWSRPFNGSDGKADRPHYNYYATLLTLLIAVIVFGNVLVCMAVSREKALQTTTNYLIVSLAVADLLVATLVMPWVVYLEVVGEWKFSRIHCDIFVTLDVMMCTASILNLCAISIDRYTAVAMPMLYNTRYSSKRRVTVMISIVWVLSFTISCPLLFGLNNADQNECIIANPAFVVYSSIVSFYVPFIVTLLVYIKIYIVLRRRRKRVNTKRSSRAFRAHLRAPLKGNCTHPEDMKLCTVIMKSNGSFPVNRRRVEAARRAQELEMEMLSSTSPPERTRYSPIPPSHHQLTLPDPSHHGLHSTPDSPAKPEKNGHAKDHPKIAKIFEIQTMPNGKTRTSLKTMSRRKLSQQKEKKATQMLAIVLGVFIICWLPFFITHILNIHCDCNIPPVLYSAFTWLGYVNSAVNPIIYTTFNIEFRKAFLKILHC

affinity for dopamine D2 receptors (dopamine D2 receptors)	SMILES	preventing mitochondrial damage and apoptosis induced by nitric oxide (NO) (SH-SY5Y cells)	protection of dopaminergic neurons against lactacystin (cell viability, MTT assay) ([1]; hydrochloride)	protection against lactacystin in calcein AM fluorescence assay [2]	neuroprotection against lactacystin in calcein AM fluorescence assay at higher concentrations [2]	viability of ventral mesencephalic neurones, calcein AM assay (Figure 6 legend) [2]	protection of dopaminergic neurons against lactacystin (cell viability, MTT assay) [1]	further results
moderate affinity	O=C(Nc1cccc(CCN2CCN(c3ccccc3)CC2)c1)c1ccccn1 [Compound 2, N-{3-[2-(4-phenyl-piperazin-1-yl)ethyl]-phenyl}-picolinamide, reference compound]	most active						
little or no affinity	Cl.O=S(=O)(Nc1cccc(CCN2CCN(c3ccccc3)CC2)c1)c1cccnc1 [Compound 4h, N-{3-[2-(4-phenyl-piperazin-1-yl)-ethyl]-phenyl}-3-pyridylsulphonamide hydrochloride]		protective	afford protection	neuroprotection was reversed	reversed cell death		protection of dopaminergic neurons against lactacystin (cell viability, MTT assay) ([1]; listed as 4207, hydrochloride): most protection; Ki (5-HT1a receptors): 6.88 nM
moderate affinity	O=C(Nc1ccc(CCN2CCN(c3ccccc3)CC2)cc1)c1ccccn1 [Compound 1, N-{4-[2-(4-phenyl-piperazin-1-yl)ethyl]-phenyl}-picolinamide, reference compound]	most active						
	Cl.O=S(=O)(Nc1cccc(CCN2CCN(c3ccccc3)CC2)c1)c1cccnc1 [Compound 4208, N-{3-[2-(4-phenyl-piperazin-1-yl)-ethyl]-phenyl}-3-pyridylsulphonamide hydrochloride]		markedly protected					
	O=S(=O)(Nc1cccc(CCN2CCN(c3ccccc3)CC2)c1)c1ccccn1 [Compound 4298]						markedly protected	
	O=S(=O)(Nc1ccc(CCN2CCN(c3ccccc3)CC2)cc1)c1ccccn1 [Compound 4f, N-{4-[2-(4-phenyl-piperazin-1-yl)-ethyl]-phenyl}-2-pyridylsulphonamide]			afford protection	neuroprotection was reversed	reversed cell death	protective	protection of dopaminergic neurons against lactacystin (cell viability, MTT assay) ([1]; listed as 4295): markedly protected; Ki (dopamine D2 receptors): 4.43 nM
